The results in this text go back to PubChem BioAssay (NCI).

“And” between values parts separate entries of the source, which are not always exact repeats. Equal entries are not always repeated.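 1) Cells in 96-well plates. 2) Compound, 48 h, 5 concentrations. 3) Linear interpolation between surrounding doses. 4) Unreached endpoint = highest concentration. The concentration for 50% growth inhibition is given as GI50. TGI denotes the concentration required for complete inhibition of growth.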 Where only a bound is given, the exact number is not on record here.

Among the test systems are CAKI-1 renal; SF-539 CNS; HOP-62 NSCLC; HS 578T breast; SK-MEL-2 melanoma; NCI-H460 lung; RXF 393 renal; DU-145 prostate; HCC-2998 colon; M14 melanoma.
Common to all, as to test: NCI tumour cell line growth inhibition, 48 h

In the case of `COc1ccc(-c2nccn2-c2cc(OC)c(OC)c(OC)c2)cc1`, the GI50 in the experiment with CAKI-1 renal is 1.22 µM; in the experiment with SF-539 CNS, 5.78 µM; with HOP-62 NSCLC it was 13.7 µM; in the experiment with HS 578T breast, 8.9 µM; in the experiment on SK-MEL-2 melanoma it was 36.1 µM; with NCI-H460 lung, 1.6 µM. Moreover, the GI50 in the experiment with RXF 393 renal is 1.12 µM; in the experiment on DU-145 prostate, 13.1 µM; in the experiment on HCC-2998 colon, 1.09 µM; with M14 melanoma, 6 µM. Also, the TGI in the experiment with CAKI-1 renal was more than 77.1 µM; in the experiment with SF-539 CNS, 24.4 µM; in the experiment with HOP-62 NSCLC it was more than 100 µM; in the experiment with HS 578T breast, more than 77.6 µM; in the experiment with SK-MEL-2 melanoma, more than 100 µM; in the experiment on NCI-H460 lung it was more than 100 µM. In addition, the TGI in the experiment with RXF 393 renal was 26.6 µM; in the experiment on DU-145 prostate it was more than 100 µM; in the experiment with HCC-2998 colon, 39.9 µM; with M14 melanoma, more than 100 µM.

As for `O=C1C2=C(Nc3cc([N+](=O)[O-])ccc3N2)OC1c1c[nH]c2ccc(COc3ccccc3)cc12` (stereo not given), the TGI with CAKI-1 renal, in the experiment with SF-539 CNS, in the experiment on HOP-62 NSCLC, in the experiment with HS 578T breast, in the experiment with SK-MEL-2 melanoma and with NCI-H460 lung was more than 100 µM in each case. Moreover, the TGI in the experiment with RXF 393 renal, with DU-145 prostate, with HCC-2998 colon and in the experiment with M14 melanoma was more than 100 µM throughout.

Regarding `Cc1nn(-c2ccccc2)c2ncc3c(c12)C(=O)N(Cc1ccccc1)C3=O`, the GI50 with CAKI-1 renal was 2.43 µM; with SF-539 CNS, 12.2 µM; with HOP-62 NSCLC it was 3.73 µM; with HS 578T breast, 2.98 µM; in the experiment on SK-MEL-2 melanoma, 13.7 µM; in the experiment with NCI-H460 lung, 2.55 µM. Also, the GI50 was 6.67 µM in the experiment on RXF 393 renal, 72.2 µM with DU-145 prostate, more than 100 µM in the experiment with HCC-2998 colon and 4.98 µM with M14 melanoma. The TGI in the experiment with CAKI-1 renal is 5.97 µM; in the experiment on SF-539 CNS, 56.7 µM; in the experiment on HOP-62 NSCLC it was 13.8 µM; with HS 578T breast it was more than 100 µM; with SK-MEL-2 melanoma, 31.5 µM; in the experiment with NCI-H460 lung it was more than 100 µM. The TGI in the experiment on RXF 393 renal was 38.3 µM; in the experiment on DU-145 prostate, more than 100 µM; in the experiment with HCC-2998 colon it was more than 100 µM; with M14 melanoma, more than 100 µM.

`Cc1cccc(NC(=O)c2sc3nc4c(cc3c2N)CCC4)c1C`: the GI50 with CAKI-1 renal is 0.332 µM; in the experiment with SF-539 CNS, 0.241 µM; with HOP-62 NSCLC, 0.428 µM; in the experiment on HS 578T breast, 0.486 µM; with SK-MEL-2 melanoma, 0.31 µM; with NCI-H460 lung, 0.382 µM. For the same molecule, the GI50 was 0.18 µM with RXF 393 renal, 0.407 µM in the experiment with DU-145 prostate, 0.687 µM with HCC-2998 colon and 0.236 µM in the experiment with M14 melanoma. In addition, the TGI amounted to 56.7 µM in the experiment with CAKI-1 renal; 2.51 µM with SF-539 CNS; 17.4 µM with HOP-62 NSCLC; 16 µM in the experiment with HS 578T breast; 17.9 µM with SK-MEL-2 melanoma; 13.1 µM in the experiment on NCI-H460 lung. Moreover, the TGI in the experiment with RXF 393 renal turned out to be 0.669 µM; in the experiment on DU-145 prostate it was 13.9 µM; with HCC-2998 colon, 22.5 µM; in the experiment on M14 melanoma it was 2.4 µM.

Regarding `CC(CCC/C=C/CCCN(C)C(=N)N)CC(C)C1OC(=O)C(C)C(O)/C=C/C(C)C(O)C(C)C(O)C(C)C(O)CCCC(O)CC2(O)OC(CC(OC(=O)CC(=O)O)CC(O)CC(O)C(C)C(O)/C=C/C=C/C1C)CC(O)C2O` (stereo not given), the GI50 in the experiment with CAKI-1 renal was 2.01 µM and 7.96 µg/mL; in the experiment with SF-539 CNS, 1.73 µM and 2.67 µg/mL; with HOP-62 NSCLC it was 4.29 µM and 10.5 µg/mL; with HS 578T breast, 2.56 µM and 2.5 µg/mL; in the experiment on SK-MEL-2 melanoma, 7.22 µM and 10.2 µg/mL; in the experiment with NCI-H460 lung, 2.09 µM and 3.95 µg/mL. The GI50 in the experiment on RXF 393 renal was 1.98 µM and 1.89 µg/mL; in the experiment with DU-145 prostate, 2.22 µM and 6.85 µg/mL; in the experiment with HCC-2998 colon, 3.18 µM and 10.9 µg/mL; with M14 melanoma, 2.51 µM and 9.44 µg/mL. The TGI with CAKI-1 renal was 5.24 µM and 17.7 µg/mL; in the experiment on SF-539 CNS it was 3.64 µM and 12.5 µg/mL; with HOP-62 NSCLC, 17.1 µM and 21.6 µg/mL; with HS 578T breast it was 7.84 µM and 12.9 µg/mL; in the experiment on SK-MEL-2 melanoma, 23 µM and 20.5 µg/mL; with NCI-H460 lung it was 3.95 µM and 14.5 µg/mL. In addition, the TGI is 3.71 µM and 4.59 µg/mL with RXF 393 renal; 4.71 µM and 16 µg/mL in the experiment on DU-145 prostate; 12.1 µM and 23.4 µg/mL in the experiment on HCC-2998 colon; 6.32 µM and 23.9 µg/mL with M14 melanoma.

`O=C(/C=C\c1ccc(Cl)c(Cl)c1)c1ccccc1`: the GI50 is 6.33 µM with CAKI-1 renal; 15.3 µM with SF-539 CNS; 17.3 µM in the experiment on HOP-62 NSCLC; 17 µM with HS 578T breast; 13.8 µM in the experiment on SK-MEL-2 melanoma; 15.9 µM with NCI-H460 lung. In addition, the GI50 in the experiment on RXF 393 renal is 12.3 µM; in the experiment on DU-145 prostate it was 10.1 µM; with HCC-2998 colon it was 4.75 µM; with M14 melanoma, 7.37 µM. In addition, the TGI in the experiment on CAKI-1 renal came out at 19.3 µM; in the experiment with SF-539 CNS, 29.6 µM; in the experiment on HOP-62 NSCLC, 35.1 µM; in the experiment on HS 578T breast it was 52.5 µM; with SK-MEL-2 melanoma, 27.4 µM; in the experiment with NCI-H460 lung, 32.9 µM. Moreover, the TGI with RXF 393 renal is 26.6 µM; in the experiment on DU-145 prostate, 21.9 µM; in the experiment with HCC-2998 colon, 16.9 µM; with M14 melanoma it was 21.5 µM.

`Cn1cc(C2=C(c3cn(CCCSC(=N)N)c4ccccc34)C(=O)NC2=O)c2ccccc21`: the GI50 with CAKI-1 renal is 7.68 µM; with SF-539 CNS, 1.9 µM; in the experiment with HOP-62 NSCLC, 2.36 µM; in the experiment with HS 578T breast, 1.91 µM; in the experiment with SK-MEL-2 melanoma, 1.53 µM; with NCI-H460 lung it was 3.65 µM. For the same molecule, the GI50 is 1.18 µM in the experiment on RXF 393 renal, 4.78 µM in the experiment with DU-145 prostate, 3.05 µM in the experiment on HCC-2998 colon and 3.56 µM in the experiment on M14 melanoma. The TGI in the experiment with CAKI-1 renal came to 23.4 µM; in the experiment with SF-539 CNS, 5.16 µM; in the experiment with HOP-62 NSCLC, 7.39 µM; in the experiment with HS 578T breast, 9.96 µM; in the experiment with SK-MEL-2 melanoma, 5.2 µM; with NCI-H460 lung, 7.54 µM. Further, the TGI worked out at 2.82 µM in the experiment on RXF 393 renal, 12.5 µM in the experiment with DU-145 prostate, 8.89 µM with HCC-2998 colon and 7.77 µM with M14 melanoma.
